Test results taken from PMC12510174 (International Journal of Biological Sciences, 2025).

What was measured:
[1] = system: WERI-Rb1 orthotopic RB model; conditions: mouse, in vivo
[2] = system: WERI-Rb1 orthotopic RB model; conditions: mouse, in vivo; remark: listed apart in the source
[3] = system: WERI-Rb1 orthotopic RB model; conditions: mouse, in vivo; remark: listed apart in the source
[4] = system: WERI-Rb1 orthotopic RB model; conditions: mouse, in vivo; remark: listed apart in the source
[5] = mouse, in vivo
retinoblastoma = conditions: human, in vivo; cited from earlier work

Compound | FITC-labeled Pri-MP uptake (Endocytosis species) alone or with added inhibitor (WERI-Rb1) [%] | FITC-labeled Pri-MP uptake (Endocytosis species) alone or with added inhibitor (Y79) [%] | reduction of Pri-MP uptake relative to vehicle controls (RB cells) [%] | other results
O=C(N/N=C/c1ccc(O)c(O)c1)c1cc2ccccc2cc1O [dynasore] | 70.1 | 73.8 | < 10 | 
CCCCC[C@@H](O)[C@H]1C(=O)O[C@H](C)[C@@H](O)/C=C/C=C/C=C/C=C/C=C(\C)[C@@H](O)C[C@H](O)C[C@H](O)C[C@H](O)C[C@H](O)C[C@H](O)C[C@@H]1O [filipin] | 84.8 | 78.6 | < 10 | 
O=c1c(-c2ccc(O)cc2)coc2cc(O)cc(O)c12 [genistein] | 87.0 | 85.2 |  | 
N=C(N)NC(=O)c1nc(Cl)c(N)nc1N [amiloride] | 22.9 | 29.8 |  | inhibitory effect on Pri-MP uptake (WERI-Rb1): 73.0%; inhibitory effect on Pri-MP uptake (Y79): 64.5%
N[C@@H](Cc1ccc(N(CCCl)CCCl)cc1)C(=O)O [Melphalan] |  |  |  | reduction of tumor burden (tumor area) [1]: 82.6%; TUNEL positivity relative to the Control group [2]: 1.77 fold; decrease of Ki-67 expression relative to the control [3]: about 30.3%; increase of p53 expression relative to the Control group [4]: 71%; alanine aminotransferase and aspartate aminotransferase levels [5]: did not significantly deviate from the Control group; body weight during treatment [5]: no significant difference; overall globe salvage rate (retinoblastoma): 66.4%
C=C1[C@@H](C)[C@H]2[C@H](Cc3ccccc3)NC(=O)[C@]23[C@H](OC(C)=O)/C=C/[C@@](C)(O)C(=O)[C@@H](C)C/C=C/[C@H]3[C@@H]1O [cytochalasin D] | 38.4 | 22.3 |  | inhibitory effect on Pri-MP uptake (WERI-Rb1): 55.4%; inhibitory effect on Pri-MP uptake (Y79): 72.4%
CN(C)CCCN1c2ccccc2Sc2ccc(Cl)cc21 [chlorpromazine] | 87.0 | 87.6 | < 10 | 
